Patent publication US11485728B2, “Small molecules for the treatment of autoimmune diseases and cancer” (Athos Therapeutics, Inc., priority 2020, dated 2022)
pIC50: −log10 of the molar value.

Columns and labels:
A-498 = A-498 kidney cancer cell viability (Real-Time-Glo); type: cell-based; details: Homo sapiens, A498; 72 hr; read-out: IC50, Cell line: A-498
Procedure: To determine the plating density for cell viability assays, for each cell line, cells were counted and diluted to final densities of 2.5, 5, 10 and 20 thousand per 100 μl of their respective growth media per well in 96 well plates. A Promega Real-Time-Glo cell viability kit was used to determine the optimal concentration for cell plating so that each cell line would be within the linear part of its growth curve after 72 hrs in culture. For the determination of test compound IC50s different cancer cell lines were plated in 96 well plates in the pre-determined optimal density for each cell line. Test compounds were then added at different concentrations for the creation of six-point curve and cell density was determined using the Promega Real-Time-Glo cell viability kit after 24, 48, and 72 hrs in culture. Test compound 72 hr IC50s were calculated using the AAT Bioquest IC50 calculator.

CYP2C8 = biological target: T1, CYP2C8 (Homo sapiens, UniProt P10632); assay: CYP-direct inhibition, CYP2C8; type: in vitro ADME
T1 construct: from tissue; host or cells: pooled human liver microsomes
T1 sequence (P10632 1-490): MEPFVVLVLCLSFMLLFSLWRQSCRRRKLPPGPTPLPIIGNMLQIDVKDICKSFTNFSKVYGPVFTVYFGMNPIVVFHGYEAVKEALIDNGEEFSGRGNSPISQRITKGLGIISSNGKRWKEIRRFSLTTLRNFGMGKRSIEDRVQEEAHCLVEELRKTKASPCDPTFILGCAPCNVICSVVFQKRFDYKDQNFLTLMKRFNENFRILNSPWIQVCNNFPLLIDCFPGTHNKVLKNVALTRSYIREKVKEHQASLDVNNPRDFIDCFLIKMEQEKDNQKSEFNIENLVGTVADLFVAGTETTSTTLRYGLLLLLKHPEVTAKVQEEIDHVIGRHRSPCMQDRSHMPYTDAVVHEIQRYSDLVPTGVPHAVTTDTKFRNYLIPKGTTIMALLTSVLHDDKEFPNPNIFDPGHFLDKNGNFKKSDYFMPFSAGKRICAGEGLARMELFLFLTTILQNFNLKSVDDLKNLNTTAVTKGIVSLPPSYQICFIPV
Procedure: (§1) Many drugs inhibit cytochrome P450 enzymes to cause clinically significant changes in the pharmacokinetics of other drugs. In vitro cytochrome P450 inhibition, can provide crucial information in evaluating potential clinical drug-drug interactions and is useful for focusing in vivo tests to areas of concern. The cytochrome P450 inhibition assay was developed by preparing a working cocktail solution consisting of six probe substrates 10 μM ethoxy-resorufin (CYP1A2), 100 μM rosiglitazone (CYP2C8), 50 μM diclofenac (CYP2C9), 300 μM S-mephenytoin (CYP2C19), 50 μM dextromethorphan (CYP2D6), and 20 μM midazolam (CYP3A4). A mixture solution consists of 140 uL of 0.286 mg/mL of pooled human liver microsome working solution and 20 uL working solutions of test articles, standard control inhibitors, or positive control placebo and 20 uL of substrate cocktail mixture working solution was prepared. The mixture solution was pre-warm in a gentle shaking bath at 37±2° C. for 5 minutes. The enzymatic reaction started by adding 20 uL of NRS working solution to the mixture solution and incubated for 10 minutes at 37±2° C. To stop the reaction, an addition of 400 μL cold stop solution (acetonitrile containing 50 ng/mL Tolbutamide as an internal standard (I.Std.) was added to the mixture solution. The final concentration of test article, inhibitors, substrates, and cofactors are noted in Table 0.1 below. Two individual samples were prepared for each test compound. The extracted samples were vortexed and then centrifuged at 4500 rpm for 7 minutes using Eppendorf Centrifuge 5910R. 200 uL of supernatant was diluting with 200 uL of 50% Methanol into 96-DW plate for LC/MS/MS analysis
(§2) Concentration-response plots are used to determine the effects of an inhibitor on an enzymatic reaction. A typical concentration-response plot provides fractional activity (Y axis) is plotted as a function of log inhibitor concentration (X axis). The data are fitted using a standard Sigmoidal dose-response equation which is also called a […] logistic equation. The concentration of compound that results in 50% inhibition of maximal activity is termed as the IC50 (inhibitor concentration yielding 50% inhibition). IC50 value is calculated using Prism GraphPad software, version 9. […].
(§3) Cytochrome P450 inhibition of a drug is a key factor in determining pharmacokinetic drug-drug interactions. The objective of this study was to evaluate the inhibition potential of G9a inhibitors on six (6) major human cytochrome P450 enzymes, including CYP1A2, CYP2C8, CYP2C9, CYP2C19, CYP2D6, and CYP3A4. Inhibition was determined by using a substrate cocktail and analyzing the rate of specific metabolites formation. The cytochrome P450 inhibition assay was developed using a cocktail consisting of six (6) probe substrates ethoxy-resorufin (CYP1A2), rosiglitazone (CYP2C8), diclofenac (CYP2C9), S-mephenytoin (CYP2C19), dextromethorphan (CYP2D6), and midazolam (CYP3A4). The cocktail was incubated in human liver microsome with NADPH regenerating system (NRS) in a shaking bath at 37±2° C. The formation of specific metabolites was monitored by LC/MS/MS. Test compound was added to the cocktail-liver microsome mixture at varying concentrations and its effect on cytochrome P450 activity was determined by analyzing the rate of specific metabolite formation. The percent inhibition was calculated and plotted with reference to the concentration, and the IC50 value for inhibition was derived by fitting the data with a using log(inhibitor) vs. normalized response with variable slope least squares fit by Graphpad Prism® software. […].

PAMPA permeability = details: PAMPA, 5 hours at RT
Text: Parallel artificial membrane permeability (PAMPA) assay is a non-cell based assay designed to predict in vivo biological membrane permeability of drugs in early stage of drug discovery. […] The Corning Gentest Pre-coated PAMPA plate system was designed by 96-well insert system with a 0.45 μm PVDF (polyvinylidene fluoride) filter plate which has been pre-coated with structured tri-layers of phospholipids (lipid/oil/lipid) and a matched receiver microplate.
Donor solutions of test compounds (300 μL, 20 μM in PBS/MeOH 90:10) were added to each well of the donor plate. 200 μL of PBS/MeOH 90:10 was added to each well of the acceptor plate. The acceptor plate was coupled with the donor plate and incubated for 5 hours at room temperature (RT) without agitation. In each plate, compounds were tested in triplicate. At the end of the incubation, drug concentration in the initial donor solution, acceptor and the donor wells were determined using LC/MS/MS. A five (5) points standard curve from 0.1 to 1000 nM for each test compound were prepared. Analyte samples were diluted to within standard curve concentration with ACN/H2O 50:50 prior analysis.
All samples were analyzed by electrospray ionization (ESI) liquid chromatograph/mass spectrometry (LC/MS) system utilizing Sciex 5500 quadropule ion trap (Qtrap) mass spectrometry with Shidmazu Nexera X2 UHPLC. The LC-MS/MS instrument monitored each of the test compound in the study based of their respective mass-to-charge (m/z) transitions and MS parameters. Chromatographic separation was achieved on Phenomenex Luna C18 column (50×2.0 mm, 3 μm particle size) by using a gradient elution: mobile phase A contains 0.1% formic acid in water and mobile phase B contains 0.1% formic acid in acetonitrile; A/B (99:1) from 0 to 1 minutes; to A/B (1:99) from 1 to 4 minutes; A/B (1:99) from 4 to 8 minutes; to A/B (99:1) from 8 to 8.20 minutes; A/B (99:1) from 8.2 to 9 minutes. The flow rate was 0.4 mL/min and the column temperature was maintained at 35° C. and autosampler temperature at 4° C. For detection, the electrospray ionization operated in the positive mode using multiple reaction monitoring (MRM).
Data acquisition, and peak integrations were obtained by Analyst® Version 1.7.1 (Sciex) operating with Windows® (Microsoft). The standard curve regressions and sample concentrations were generated and calculated by Analyst®. Concentrations in the sample solutions were determined based on the measured peak area ratios from the response of the analyte to the internal standard with reference to the standard calibration curve. All sample calculations were calculated using a linear regression with 1/x^2 weighting (where x is the concentration of given calibration standard level).
Permeability of the test compounds was calculated using the following formula:
The permeability of compounds was evaluated with the parallel artificial membrane permeation assay (PAMPA) as an in vivo model of passive diffusion across a porous filter coated with a lipid/oil/lipid tri-layer artificial membrane. […] Donor solutions of test compounds (300 μL, 20 μM in PBS/MeOH 90:10) were added to each well of the donor plate. 200 μL of PBS/MeOH 90:10 was added to each well of the acceptor plate. The acceptor plate was coupled with the donor plate and incubated for 5 hours at room temperature (RT) without agitation. In each plate, compounds were tested in triplicate. At the end of the incubation, drug concentration in the initial donor solution, acceptor and the donor wells were determined using LC/MS/MS. Permeability of test compounds was calculated based on the formula described in the General Procedures above. The PAMPA permeability classification criteria are categorized into three (3) classes with a high (Pe≥1.5×10−6 cm/s), intermediate (5.5×10−8<Pe<1.5×10−6 cm/s), and low (Pe<5.5×10−8 cm/s) permeability.

CYP1A2 = biological target: T2, CYP1A2 (Homo sapiens, UniProt P05177); assay: CYP-direct inhibition, CYP1A2; type: in vitro ADME; details: human liver microsome; substrate ethoxy-resorufin; read-out: IC50 CYP-1A2
T2 construct: from tissue; host or cells: pooled human liver microsomes
T2 sequence (P05177 1-516): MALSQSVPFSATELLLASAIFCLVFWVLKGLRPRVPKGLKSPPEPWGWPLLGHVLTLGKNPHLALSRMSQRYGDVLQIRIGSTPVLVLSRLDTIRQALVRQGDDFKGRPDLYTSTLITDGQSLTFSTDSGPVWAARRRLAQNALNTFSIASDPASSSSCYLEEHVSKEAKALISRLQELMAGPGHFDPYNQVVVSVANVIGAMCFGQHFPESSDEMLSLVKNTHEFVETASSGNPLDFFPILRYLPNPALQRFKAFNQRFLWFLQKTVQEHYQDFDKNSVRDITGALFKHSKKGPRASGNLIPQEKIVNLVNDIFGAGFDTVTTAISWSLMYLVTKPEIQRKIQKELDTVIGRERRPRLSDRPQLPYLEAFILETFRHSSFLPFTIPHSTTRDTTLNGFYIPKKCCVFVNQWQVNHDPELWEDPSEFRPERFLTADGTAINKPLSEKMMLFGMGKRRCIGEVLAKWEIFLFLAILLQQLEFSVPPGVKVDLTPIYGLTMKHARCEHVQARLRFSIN
Procedure: as §1, §2, §3

Question: With `COCCN1CCC(Nc2nc(N3CCC(F)(F)CC3)nc3cc(OCCCN4CCCC4)c(OC)cc23)CC1` [Compound 3, 2-(4,4-difluoropiperidin-1-yl)-6-methoxy-N-(1-(2-methoxyethyl)piperidin-4-yl)-7-(3-(pyrrolidin-1-yl)propoxy)quinazolin-4-amine] as the molecule, how does the pIC50 (A-498) read?
Answer: The pIC50 was 5.00 to 5.30.

Question: What about the pIC50 (CYP2C8) of the same molecule?
Answer: Its pIC50 is less than 4.00.

Question: And the Papp at 5 h, 20 μM (PAMPA permeability; PAMPA permeability Classification, 20 μM donor)?
Answer: The Papp at 5 h, 20 μM was 0.055 to 1.5 ×10⁻⁶ cm/s.

Question: And the Papp at 5 h, 20 μM (PAMPA permeability; Permeability, Pe, 20 μM donor in PBS/MeOH 90:10)?
Answer: Its Papp at 5 h, 20 μM is 0.451 ×10⁻⁶ cm/s.

Question: What about the pIC50 (CYP1A2) of the same molecule?
Answer: Its pIC50 is less than 4.00.
